The record followed here is patent publication US4115385A, “Antibacterial 3-(5-tetrazolyl) penam compounds” (Pfizer Inc., priority 1977, dated 1978).

One may read the MIC as the lowest concentration that inhibits growth of the organism.

In brackets after ≈: the same amount, converted by molar mass. A value given as a limit tells only on which side of the number the result lay.

In one assay the test system is Staphylococcus aureus. As to the kind of experiment: In vitro minimum inhibitory concentration (MIC) vs. Staph. aureus. The class given is cell-based. The following applies: Staphylococcus aureus; Table III; two-fold serial dilution, Brain-Heart Infusion broth, overnight; read-out: MIC vs. Staph. aureus. On the procedure:
The antibacterial penam compounds of the instant invention show activity against a wide variety of gram-positive and gram-negative bacteria. […] The broth is inoculated with the bacterial culture, and with the test antibiotic, and then it is incubated overnight. On the next day, the test is read visually. The minimum inhibitory concentration (MIC) is the lowest concentration of antibiotic which prevents turbidity, i.e., which prevents growth of the microorganism. In vitro activities of several of the penam compounds of the invention are presented later in this specification.
In Table II, the minimum inhibitory concentrations (MIC's) of compounds of formula I, wherein R^2 is hydrogen, against a strain of Streptococcus pyogenes, are reported; and in Table III, minimum inhibitory concentrations of compounds of formula I, wherein R^2 is hydrogen, against a strain of Staphylococcus aureus, are presented. Because of the tautomeric nature of such tetrazole derivatives, referred to hereinbefore,each of the preparations tested also contains some of the corresponding compound of formula II, wherein R^3 is hydrogen.
On to `CC1(C)S[C@@H]2[C@H](NC(=O)[C@H](N)Cc3c[nH]c4ccccc34)C(=O)N2[C@H]1c1nnn[nH]1` [D-2-amino-3-(3-indolyl)propionyl], for which the MIC came out at 6.25 µg/mL (≈ 14.7 µM). Still for that read-out and setting: the value for `CC1(C)S[C@@H]2[C@H](NC(=O)[C@H](NC(=O)CC(=N)N)c3ccccc3)C(=O)N2[C@H]1c1nn[nH]n1` [D-2-(2-[guanyl]acetamido)-2-phenylacetyl, 6-(D-2-[2-Guanylacetamido]-2-phenylacetamido)-2,2-dimethyl-3-(5-tetrazolyl)penam] was 12.5 µg/mL (≈ 27.3 µM); that for `CC1(C)S[C@@H]2[C@H](NC(=O)[C@H](NS(C)(=O)=O)c3ccccc3)C(=O)N2[C@H]1c1nn[nH]n1` [D-2-(methanesulfonamido)-2-phenylacetyl, 6-(D-2-Methanesulfonamido-2-phenylacetamido)-2,2-dimethyl-3-(5-tetrazolyl)penam] was 1.56 µg/mL (≈ 3.45 µM); that for `CC(=N)NCC(=O)N[C@@H](C(=O)N[C@@H]1C(=O)N2[C@@H]1SC(C)(C)[C@@H]2c1nnn[nH]1)c1ccccc1` was 1.56 µg/mL (≈ 3.31 µM). With `CC1(C)S[C@@H]2[C@H](NC(=O)[C@@H](O)c3ccccc3)C(=O)N2[C@H]1c1nnn[nH]1` [L-2-hydroxy-2-phenylacetyl, 6-(L-2-Hydroxy-2-phenylacetamido)-2,2-dimethyl-3-(5-tetrazolyl)penam], the MIC was less than 0.1 µg/mL. With `CC1(C)S[C@@H]2[C@H](NC(=O)[C@H](NC(=O)CNC(=O)c3cc(Br)cc(Br)c3)c3ccccc3)C(=O)N2[C@H]1c1nnn[nH]1`, the MIC was found to be 1.56 µg/mL (≈ 2.25 µM). For `CC1(C)S[C@@H]2[C@H](NC(=O)C(NC(=O)CSc3ccncc3)c3ccccc3)C(=O)N2[C@H]1c1nn[nH]n1` (stereo partly shown) [6-(2-[2-(4-Pyridylthio)acetamido]-2-phenylacetamido)-2,2-dimethyl-3-(5-tetrazolyl)penam], the MIC amounted to 100 µg/mL (≈ 191 µM). The same measure, in the same setting: the same measure for `CC1(C)S[C@@H]2[C@H](NC(=O)[C@H](O)c3ccccc3)C(=O)N2[C@H]1c1nnn[nH]1` [D-2-hydroxy-2-phenylacetyl, 6-(D-2-Hydroxy-2-phenylacetamido)-2,2-dimethyl-3-(5-tetrazolyl)penam]: less than 0.1 µg/mL; for `CC(=O)N[C@@H](C(=O)N[C@@H]1C(=O)N2[C@@H]1SC(C)(C)[C@@H]2c1nnn[nH]1)c1ccccc1` [D-2-(acetamido)-2-phenylacetyl]: 0.78 µg/mL (≈ 1.88 µM); for `COc1ccc([C@@H](N)C(=O)N[C@@H]2C(=O)N3[C@@H]2SC(C)(C)[C@@H]3c2nnn[nH]2)cc1` [D-2-amino-2-(p-methoxyphenyl)acetyl]: less than 0.1 µg/mL. The same measure, in the same setting: the value for `CC1(C)S[C@@H]2[C@H](NC(=O)[C@H](NS(=O)(=O)c3ccc([N+](=O)[O-])cc3)c3ccccc3)C(=O)N2[C@H]1c1nn[nH]n1` was 1.56 µg/mL (≈ 2.79 µM); that for `CC1(C)S[C@@H]2[C@H](NC(=O)[C@H](NS(=O)(=O)Cc3ccccc3)c3ccccc3)C(=O)N2[C@H]1c1nn[nH]n1` was 0.39 µg/mL (≈ 0.739 µM).

For the compound `CC1(C)S[C@@H]2[C@H](NC(=O)CN)C(=O)N2[C@H]1c1nnn[nH]1` [2-aminoacetyl], the MIC came to 200 µg/mL (≈ 673 µM). Turning to `CCCS(=O)(=O)N[C@@H](C(=O)N[C@@H]1C(=O)N2[C@@H]1SC(C)(C)[C@@H]2c1nn[nH]n1)c1ccccc1` [D-2-(propanesulfonamido)-2-phenylacetyl], the MIC came to 0.78 µg/mL (≈ 1.63 µM).

The same assay, now with this note: Staphylococcus aureus; Table IV, values marked *; read-out: MIC against Staph. aureus.
As to `CC1(C)S[C@@H]2[C@H](N3C(=O)[C@@H](c4ccc(O)cc4)NC3(C)C)C(=O)N2[C@H]1c1nnn[nH]1` [6-(2,2-Dimethyl-5-oxo-4-[p-hydroxyphenyl]-1-imidazolidinyl)-2,2-dimethyl-3-(5-tetrazolyl)penam], the MIC is 0.78 µg/mL (≈ 1.82 µM).

The assay is the same for the next values; noted with them: Table III; two-fold serial dilution, Brain-Heart Infusion broth, overnight.
As for `CN(C)C=NCC(=O)N[C@@H](C(=O)NC1C(=O)N2C1SC(C)(C)C2c1nnn[nH]1)c1ccccc1` (stereo partly drawn) [6-(D-2-[2-(dimethylaminoethyleneamino)acetamido]-2-phenylacetamido-2,2-dimethyl-3-(5-tetrazolyl)penam], the “MIC vs. Staph. aureus” value was determined as 6.25 µg/mL (≈ 12.9 µM).

In another assay the test system is Streptococcus pyogenes. As to the kind of experiment: In vitro minimum inhibitory concentration (MIC) vs. Strep. pyogenes. The class given is cell-based. The following applies: Streptococcus pyogenes, read-out: MIC vs. Strep. pyogenes. In outline:
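Broth inoculated with bacteria and test antibiotic, incubated overnight and read visually; MIC is the lowest concentration preventing turbidity. Test preparations also contain some of the corresponding tetrazole tautomer.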
For `CC1(C)S[C@@H]2[C@H](NC(=O)[C@H](NC(=O)NC(=O)Cc3ccccc3)c3ccccc3)C(=O)N2[C@H]1c1nn[nH]n1`, the MIC is less than 0.1 µg/mL. Same read-out and setting: the value for `CC1(C)S[C@@H]2[C@H](NC(=O)Cc3ccccc3OCCN)C(=O)N2[C@H]1c1nn[nH]n1` [2-(o-[2-aminoethoxy]phenyl)acetyl, 6-(2-[2-(2-Aminoethoxy)phenyl]acetamido)-2,2-dimethyl-3-(5-tetrazolyl)penam] was less than 0.1 µg/mL; that for `CC1(C)S[C@@H]2[C@H](NC(=O)Cc3ccc(CN=[N+]=[N-])s3)C(=O)N2[C@H]1c1nnn[nH]1` [2-(5-azidomethyl-2-thienyl)-acetyl, 6-(2-[5-Azidomethyl-2-thienyl]acetamido)-2,2-dimethyl-3-(5-tetrazolyl)penam] was no more than 0.1 µg/mL. As for `CC1(C)S[C@@H]2[C@H](NC(=O)[C@H](N)C3CCCO3)C(=O)N2[C@H]1c1nnn[nH]1` (stereo partly drawn) [D-2-amino-2-(2-tetrahydrofuryl)acetyl], the MIC was less than 0.1 µg/mL.

On to `CC1(C)S[C@@H]2[C@H](NC(=O)Cc3cccc(OCCN)c3)C(=O)N2[C@H]1c1nn[nH]n1` [2-(3-[2-aminoethoxy]phenyl)acetyl, 6-(2-[3-(2-Aminoethoxy)phenyl]acetamido)-2,2-dimethyl-3-(5-tetrazolyl)penam], for which the MIC was less than 0.1 µg/mL. For the compound `CCOc1ccc2ccccc2c1C(=O)N[C@@H]1C(=O)N2[C@@H]1SC(C)(C)[C@@H]2c1nnn[nH]1` [2-ethoxy-1-naphthoyl, 6-(2-Ethoxy-1-naphthamido)-2,2-dimethyl-3-(5-tetrazolyl)penam], the MIC is less than 0.1 µg/mL.

On to `CC1(C)S[C@@H]2[C@H](NC(=O)[C@H](NC(=O)CSc3ccccc3)c3ccccc3)C(=O)N2[C@H]1c1nnn[nH]1`, for which the MIC is less than 0.1 µg/mL. Take `CC1(C)S[C@@H]2[C@H](NC(=O)[C@H](NC(=O)CNC(=O)NC(=N)Cc3ccc(Cl)cc3)c3ccccc3)C(=O)N2[C@H]1c1nnn[nH]1`: the minimum inhibitory concentration (MIC) was less than 0.1 µg/mL. Take `CC1(C)S[C@@H]2[C@H](NC(=O)[C@H](NC(=O)CNC(=N)c3cnc4ccccc4n3)c3ccccc3)C(=O)N2[C@H]1c1nnn[nH]1`: the MIC was 0.1 µg/mL (≈ 0.171 µM).

Turning to `CC1(C)S[C@@H]2[C@H](NC(=O)[C@H](NC(=O)c3ccc(N)cc3)c3ccccc3)C(=O)N2[C@H]1c1nn[nH]n1` [D-2-(4-aminobenzamido)-2-phenylacetyl, 6-(D-2-[4-Aminobenzamido]-2-phenylacetamido)-2,2-dimethyl-3-(5-tetrazolyl)penam], the MIC is less than 0.1 µg/mL. `COc1ccc(C(=N)NC(=O)NCC(=O)N[C@@H]2C(=O)N3[C@@H]2SC(C)(C)[C@@H]3c2nnn[nH]2)cc1`: the MIC was found to be 0.1 µg/mL (≈ 0.211 µM).

Regarding `CNC(=O)NCC(=O)N[C@@H](C(=O)N[C@@H]1C(=O)N2[C@@H]1SC(C)(C)[C@@H]2c1nnn[nH]1)c1ccccc1`, the MIC was less than 0.1 µg/mL. For `CC1(C)S[C@@H]2[C@H](NC(=O)Cc3ccc(CN)s3)C(=O)N2[C@H]1c1nnn[nH]1` [2-(5-aminomethyl-2-thienyl)-acetyl, 6-(2-[5-Aminomethyl-2-thienyl]acetamido)-2,2-dimethyl-3-(5-tetrazolyl)penam], the MIC was no more than 0.1 µg/mL.

The assay is the same for the next values; noted with them: Streptococcus pyogenes; Table II; two-fold serial dilution, Brain-Heart Infusion broth, overnight; read-out: MIC vs. Strep. pyogenes.
In the case of `CC(=O)NC(=S)N[C@@H](C(=O)N[C@@H]1C(=O)N2[C@@H]1SC(C)(C)[C@@H]2c1nn[nH]n1)c1ccccc1`, the MIC was found to be 3.2 µg/mL (≈ 6.74 µM). On to `CC1(C)S[C@@H]2[C@H](NC(=O)[C@H](NC(=O)CNC(=N)c3ncccn3)c3ccccc3)C(=O)N2[C@H]1c1nnn[nH]1`, for which the MIC was determined as 0.78 µg/mL (≈ 1.46 µM). For `CC1(C)S[C@@H]2[C@H](NC(=O)C(N)c3ccc(N)cc3)C(=O)N2[C@H]1c1nnn[nH]1` (stereo partly shown) [2-amino-2-(4-aminophenyl)acetyl], the MIC is 0.039 µg/mL (≈ 0.1 µM).

Take `CC(=O)C(=O)N[C@@H](C(=O)N[C@@H]1C(=O)N2[C@@H]1SC(C)(C)[C@@H]2c1nnn[nH]1)c1ccccc1` [D-2-(acetylformamido)-2-phenylacetyl]: the MIC worked out at 50 µg/mL (≈ 113 µM). In the case of `CC1(C)S[C@@H]2[C@H](NC(=O)NC(=O)c3ccco3)C(=O)N2[C@H]1c1nn[nH]n1` [N-(2-furoyl)carbamoyl], the MIC worked out at 1.56 µg/mL (≈ 4.13 µM). Regarding `CC1(C)S[C@@H]2[C@H](NC(=O)[C@H](NC(=O)CCNC(=N)Cc3ccc(Cl)cc3)c3ccccc3)C(=O)N2[C@H]1c1nnn[nH]1`, the MIC was 1.56 µg/mL (≈ 2.62 µM).

Regarding `CN=C(NC)SCC(=O)N[C@@H](C(=O)N[C@@H]1C(=O)N2[C@@H]1SC(C)(C)[C@@H]2c1nn[nH]n1)c1ccccc1` [6-(D-2-[N,N'-dimethylamidinothio)acetamido]-2-phenylacetamido)-2,2-dimethyl-3-(5-tetrazolyl)penam], the MIC was 0.004 µg/mL (≈ 0.00773 µM). Same read-out and setting: the same measure for `CCOC(=O)CC(=O)N[C@@H]1C(=O)N2[C@@H]1SC(C)(C)[C@@H]2c1nnn[nH]1` [2-(ethoxycarbonyl)acetyl]: 0.39 µg/mL (≈ 1.1 µM); for `CC1(C)S[C@@H]2[C@H](NC(=O)[C@H](NC(=O)CNC(=O)NC(=N)c3ccccc3)c3ccccc3)C(=O)N2[C@H]1c1nnn[nH]1`: 0.78 µg/mL (≈ 1.35 µM); for `CC1(C)S[C@@H]2[C@H](NC(=O)[C@H](NC(=O)CNC(=N)c3cc(Cl)cc(S(N)(=O)=O)c3)c3ccccc3)C(=O)N2[C@H]1c1nnn[nH]1`: 0.004 µg/mL (≈ 0.00618 µM).

Staying with this assay, now noted: Table II; two-fold serial dilution, Brain-Heart Infusion broth, overnight.
In the case of `CC1(C)SC2C(NC(=O)[C@@H](c3ccccc3)S(N)(=O)=O)C(=O)N2C1c1nnn[nH]1` (stereo partly drawn) [2-sulfamoyl-2-phenylacetyl, 6-(D-2-Sulfamoyl-2-phenylacetamido)-2,2-dimethyl-3-(5-tetrazolyl)penam], the “MIC vs. Strep. pyogenes” value is less than 0.1 µg/mL.
